Experimental data published in PMC6290777, “Inhalation of the prodrug PI3K inhibitor CL27c improves lung function in asthma and fibrosis” (Nature Communications, 2018).

Experiments:
Assay type in all cases: in vivo, BALB/c mice
[1] = test system: OVA-induced acute allergic asthma; assay: OVA-induced acute allergic asthma model; settings: systemic treatment, i.p.
Procedure: On Days 1 and 14, BALB/c mice (6–8 weeks) received an intraperitoneal injection (i.p.) of a solution containing 0.5 mg/ml OVA and 5 mg/ml Alum (described in Fig. 2). Untreated controls were injected with a solution of 5 mg/ml Alum. […] Untreated control groups included mice challenged with PBS alone. On day 29, mice were sacrificed, and samples were collected for further analysis.
(§1) BALF was performed to obtain leukocytes from alveolar space. The trachea was exposed and a 1.7-mm-outside-diameter polyethylene catheter was inserted. BAL was performed by washing the lungs three-times with three different 500 µl aliquots of PBS. BALF samples were centrifuged at 600 × g for 10 min at 4 °C on a histology glass slide and stained with Diff Quick (MICROPTIC, #DQ-ST). The number of leukocytes and differential counts of different population were obtained evaluating the percentage leukocyte populations over the total cell number.
(§2) IL-5, IL-13, eotaxin, TGF-β, KC, IL-17A, and MCP-1 levels in the BALF and anti-OVA IgE levels in serum were measured by ELISA technique using commercial DuoSet kits R&D Systems according to the instructions of the manufacturer. Results were expressed in levels of cytokines per ml of […] (pg/ml) or arbitrary units (A.U.).
Immunohistochemistry for CD18 was performed using the streptavidin-biotin-peroxidase method in formalin-fixed, paraffin-embedded tissue sections (5 µm thick) mounted on poly-L-lysine-coated microscope slides. Lung cross-sections were deparaffinized and rehydrated through xylene and graded alcohols. After antigen retrieval, endogenous peroxidase was blocked (15 min) with 3% (v/v) hydrogen peroxide and washed in phosphate-buffered saline (PBS). Sections were incubated overnight (4 °C) with primary rabbit anti-CD18 antibody (Acris Antibodies GmbH, Germany, Cat. Number B0842-1) diluted 1:400 in PBS plus bovine serum albumin (PBS-BSA) or rabbit anti/PAkt (S473) diluted 1:100 in PBS/BSA. The slides were then incubated with biotinylated goat anti-rabbit antibody (Dako Agilent Pathology Solution, USA) diluted 1:1000 in PBS/BSA. After washing, the slides were incubated with avidin-biotin-horseradish peroxidase conjugate (Dako Agilent Pathology Solution, USA) for 30 min, according to the manufacturer’s instructions. CD18 and PAkt-positive cells were visualized with the chromogen 3,3′-diaminobenzidine (DAKO liquid DAB + substrate chromogen system, CA, USA). Slides were counterstained with Harry’s hematoxylin, dehydrated in a graded alcohol series, cleared in xylene, and cover slipped.
Lung, liver, and heart samples were collected for western blot detection of akt phosphorilation levels. Protein samples were resolved by 10% SDS-PAGE and transferred on to PVDF (Immobilon™-P) membranes. The membranes were blocked with 5% BSA in 1x TBS with 0.3% Tween 20 for 30 min at […]. Then, the membranes were incubated overnight at 4 °C with primary antibodies (phosphorylated Akt serine 473, 1:1000, Cell Signaling Technology, Cat. Number 4060) and 1 h with HRP-conjugated secondary antibody (1:10000). The blots were visualized in ECL solution for 1 min and images were captured on Luminescent Image Analyser (ChemiDoc Imaging Systems, Bio-Rad Laboratories, USA). For loading control, the blots were striped and reassessed with pan Akt (1:1000) antibody. For quantification, specific phosphorylation was calculated as the ratio of signals for phosphorylated Akt to the signal of total Akt detected. Values of unstimulated samples were set to 1.0. Uncropped scans of the most important blots are provided as a supplementary figure in the Supplementary Information (Supplementary Fig. 15).

[2] = test system: OVA-induced chronic allergic asthma; assay: OVA-induced chronic allergic asthma model; settings: CL27c 2 mg/ml aerosol or dexamethasone 5 mg/kg
Procedure: as §1
(§3) Mice were anesthetized with a subcutaneous injection of ketamine and xylazine (130 mg/Kg ketamine and 8.5 mg/Kg xylazine) to maintain spontaneous breathing under anesthesia. Mice were tracheostomized, placed in a body plethysmograph and connected to a computer-controlled ventilator (Forced Pulmonary Maneuver System®, Buxco Research Systems©, Wilmington, North Carolina USA). First, an average breathing frequency of 160 breaths/min was imposed to the anesthetized animal by a pressure-controlled ventilation until a regular breathing pattern and complete expiration at each breathing cycle was obtained. Under mechanical respiration, respiratory flow and airway pressure were measured to compute dynamic compliance (Cdyn) and lung resistance (RL). To measure the TLC, pressure–volume maneuvers were performed, where lungs were inflated to a standard pressure of +30 cm H2O and then let slowly exhale until a negative pressure of −30 cm H2O was reached. To measure the FEV Fast-Flow Volume maneuvers was performed. In this maneuver, lungs were first inflated to +30 cm H2O (TLC) and, immediately, a negative pressure (−30 cm H2O) was applied in order to enforce expiration. To evaluate AHR, the same mice used in previous maneuvers (basal condition) received Metacholine, 1 mg/Kg (Acetyl-β-methylcholine chloride, A-2251, Sigma-Aldrich St.Louis, MO,USA) i.v., and 20 sec after, a new set of maneuvers were conducted to assess RL changes. Suboptimal maneuvers were rejected and for each test in every single mouse at least three acceptable maneuvers were conducted to obtain a reliable mean for all numeric parameters.
On day 1, BALB/c mice received systemic immunization by subcutaneous injection of 10 µg of chicken egg ovalbumin (OVA grade V, >98% pure; Sigma, St Louis, MO) diluted in 2 mg/mL Al(OH)3 followed by a booster injection at the day 14 (described in fig. 3). Nasal challenges were performed starting at the day 28, by inhalational exposure to aerosolised ovalbumin (1% ovalbumin in saline 0,9%) for 20 min per day, in alternated days during 16 days (day 28, 30, 32, 34, 36, 38, 40, 42 and 44). At the same time, mice received daily treatment from day 28 to 44 with CL27c (2 mg/ml dissolved in 0.5 % tylaxopol/saline solution, aerosolized for 30′) or vehicle (0.5% tyloxapol/saline solution, aerosolized for 30′), or dexamethasone (5 mg/kg i.p. injection). Untreated control groups included mice challenged with PBS alone. On day 45, mice were sacrificed, and samples were collected for further analysis.
as §2
The left lung was removed and fixed in 4% neutral phosphate-buffered formalin (pH 7.4)[10]. The tissues were dehydrated gradually in ethanol, embedded in paraffin, cut into 4 µm sections, stained with H&E, Gomori’s trichrome and periodic acid schiff (PAS), and examined under light microscopy by a pathologist in a double blinded manner. Images of lung sections were captured with a digital camera (Optronics DEI-470) connected to a microscope (Olympus IX70) with a magnification of ×40 or ×100. […]

[3] = test system: glucocorticoid-resistant neutrophilic asthma; assay: Glucocorticoid-resistant asthma model; settings: CL27c 2 mg/ml aerosol; dexamethasone 5 mg/kg i.p.
Procedure: as §1, §3, §2
On day 1 BALB/c mice received systemic immunization by subcutaneous injection of 20 µg of chicken egg ovalbumin (OVA grade V, >98% pure; Sigma, St Louis, MO) in saline, emulsified in 75 µL CFA (Complete Freund’s Adjuvant; Sigma-Aldrich) (Figure 5)[52]. On days 25–28 mice were exposed to aerosolised ovalbumin (1% in saline) for 20 min per day. Mice were exposed during 30 min to aerosolized CL27c (2 mg/ml dissolved in 0.5 % tylaxopol/saline solution) or vehicle (0.5% tyloxapol/saline solution), or to systemic treatment with dexamethasone (5 mg/kg i.p. injection). Untreated control groups included mice challenged with PBS alone. On day 29, mice were sacrificed, and samples were collected for further analysis.
The left lung was removed and fixed in 4% neutral phosphate-buffered formalin (pH 7.4)[10]. The tissues were dehydrated gradually in ethanol, embedded in paraffin, cut into 4 µm sections, stained with H&E, Gomori’s trichrome and periodic acid schiff (PAS), and examined under light microscopy by a pathologist in a double blinded manner. Images of lung sections were captured with a digital camera (Optronics DEI-470) connected to a microscope (Olympus IX70) with a magnification of ×40 or ×100. Inflammation was scored according to modification of existing protocols[53] and to the histopathology criteria reported in Supplementary Table 4.

C[C@@H]1C[C@H]2[C@@H]3CCC4=CC(=O)C=C[C@]4(C)[C@@]3(F)[C@@H](O)C[C@]2(C)[C@@]1(O)C(=O)CO [Dexamethasone, reference compound]
BALF accumulation of inflammatory cells [1]: significantly reduced this infiltration
accumulation of inflammatory cells in peribronchial and perivascular spaces [2]: significantly decreased
lung function: lung resistance (RL) and dynamic compliance (Cdyn) [2]: normalize lung function
peribronchial fibrosis (fibrotic airway remodeling) [2]: significantly reduced
histopathology: overall score of lung damage / tissue inflammation [3]: failed to provide an effect
